Legend:
[1] = biological target: T1, MAP4K1 (HPK1) (Homo sapiens, UniProt Q92918); assay: Inhibition of MAP4K1 biochemical enzymatic activity (EZReader 2 electrophoretic mobility shift assay); settings: HPK1 (Invitrogen), S6K2tide 1.5 μM, 120 min; ATP 26 μM or 1000 μM (not stated which)
T1 construct: purchased Invitrogen
Description: MAP4K1 (HPK1) and relevant off-target enzymatic activity was monitored using the Perkin Elmer electrophoretic mobility shift technology platform—the EZReader 2. […] Within the linear, steady-state phase of the kinase enzymatic reaction, the mixed pool of phosphorylated (product) and non-phosphorylated (substrate) peptides was passed through the microfluidic system of the PerkinElmer EZ Reader 2, under an applied electric potential difference. The presence of the phosphate group on the product peptide provided a difference in mass and charge between that of the substrate peptide, resulting in a separation of the substrate and product pools in the sample (Perrin et al. 2010). As the product and substrate peptide mixture passes the lasers within the instrument, these pools are detected (λex=488 nm, λem=568 nm) and resolved as separate peaks. The ratio between these peaks reflects the activity of the compound at that concentration, in that well, under those conditions.
Inhibitors were dissolved in 100% DMSO at a stock concentration of 10 mM. A 100×, 10-point, 4-fold serial dilution of each inhibitor was created in 100% DMSO either manually or on a Hamilton STAR liquid handler, starting at a relevant concentration, usually 1 mM. A volume of 0.130 μL of each concentration was transferred to the relevant wells of a 384-well plate (Greiner 781 201) in diplicate using a TTPLabtech Mosquito nano-litre dispenser. Using a Multidrop Combi, the remaining constituents of the kinase reaction were added to the 130 nL of dosed compound as follows (see table below for final reaction details):
Enzyme activity assays at the ^APPKM for ATP or 1 mM ATP: In each well of a 384-well plate, 0.1-15 nM of untreated enzyme was incubated in a total of 13 μL of buffer (100 mM HEPES pH 7.5, 0.015% Brij 35, 10 mM MgCl2, 1 mM DTT) with 1.5 μM fluorescent peptid and 20-1000 μM ATP, at 25° C., for 60-180 minutes in the presence or absence of a dosed concentration series of compound (1% DMSO final concentration). The kinase reactions were stopped by the addition of 70 μl of Stop buffer (100 mM HEPES pH 7.5, 0.015% Brij 35, 35 mM EDTA and 0.2% of Coating Reagent 3 (Caliper Lifesciences)). The plates were read on a Caliper EZReader 2 as described above.

[2] = tested on: Primary T Cell; assay: T cell enhancement of cytokines: IL2 measurement (HTRF) in expanded CD3+ T cells stimulated with anti-CD3/anti-CD28; type: cell-based, human; settings: Homo sapiens, T-cell, 24 h, plate-bound anti-CD3 and soluble anti-CD28, 24 h, read-out: IL-2 Primary T Cell EC50
Protocol: T cells are isolated from whole blood of healthy donors by immunomagnetic negative selection following manufacture's protocol (StemCell Technologies, human T cell isolation kit). Purity of isolated cells is assessed by flow cytometry and yields 95-98% CD3^+ T cells. For expansion of T cells, 1×10^6 cells/well are plated in serum free cell expansion media (ThermoFisher) containing 30U of recombinant human IL2 (R&D) and stimulated with 25 ul of CD3/CD28 beads (Invitrogen) in 24 well plates for 3-4 days. T cells are then expanded in 175 cm flasks and maintained at a cell density of 1 to 2.5×10^6 cells/ml days by addition of ⅔ of fresh media every 2-3 days. After 10-14 days, cells are frozen in BamBanker freezing media (Thermo) and stored in liquid nitrogen.
For IL2 measurement, expanded CD3+ T cells are dispensed at 100K cells/well (cultured in X-VIVO 10 Serum-free media) and are stimulated with plate-bound anti-CD3 and soluble anti-CD28 in the presence of vehicle or compound of the disclosure at various concentrations for 24 h. As outlined in the manufacturer's protocol (Cisbio), 16 μL of conditioned media is transferred to a white 384-well low volume plate. Following a 24 h incubation with the anti-IL2 antibodies, the homogenous time resolved fluorescence (HTRF) is measured.

T1 sequence (Q92918 whole entry): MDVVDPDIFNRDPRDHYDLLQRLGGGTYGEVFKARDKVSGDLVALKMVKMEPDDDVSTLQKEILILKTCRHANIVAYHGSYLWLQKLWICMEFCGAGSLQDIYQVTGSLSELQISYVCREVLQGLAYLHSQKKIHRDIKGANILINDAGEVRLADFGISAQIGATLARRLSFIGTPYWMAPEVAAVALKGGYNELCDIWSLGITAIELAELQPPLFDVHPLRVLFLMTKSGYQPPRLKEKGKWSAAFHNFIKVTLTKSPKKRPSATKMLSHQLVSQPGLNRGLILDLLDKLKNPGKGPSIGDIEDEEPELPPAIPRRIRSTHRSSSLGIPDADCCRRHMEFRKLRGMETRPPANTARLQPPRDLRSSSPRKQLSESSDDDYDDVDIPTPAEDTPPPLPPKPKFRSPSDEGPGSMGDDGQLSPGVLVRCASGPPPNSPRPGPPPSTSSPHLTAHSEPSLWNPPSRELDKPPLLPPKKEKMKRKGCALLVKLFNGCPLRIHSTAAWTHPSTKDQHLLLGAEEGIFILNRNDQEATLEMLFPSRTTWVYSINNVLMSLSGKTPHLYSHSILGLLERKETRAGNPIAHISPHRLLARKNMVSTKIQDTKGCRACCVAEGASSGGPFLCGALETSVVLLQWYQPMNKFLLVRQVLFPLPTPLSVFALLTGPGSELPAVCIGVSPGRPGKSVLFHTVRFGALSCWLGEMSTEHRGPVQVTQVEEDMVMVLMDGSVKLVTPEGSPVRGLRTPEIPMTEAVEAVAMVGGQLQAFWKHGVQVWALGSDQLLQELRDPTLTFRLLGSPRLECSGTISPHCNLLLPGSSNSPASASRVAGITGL

| SMILES | IC50 [1] [nM] | EC50 [2] [nM] |
| --- | --- | --- |
| CC(=O)N1CC(Oc2ncc(C(C)(C)N)c3cc(Nc4ccc5c(n4)[C@@H](C)C(C)(C)OC5=O)ncc23)C1 [Compound 4, (R)-2-((8-((1-Acetylazetidin-3-yl)oxy)-5-(2-aminopropan-2-yl)-2,7-naphthyridin-3-yl)amino)-7,7,8-trimethyl-7,8-dihydro-5H-pyrano[4,3-b]pyridin-5-one] | 0.15 | 19.9 |
| C[C@@H]1OC(=O)c2ccc(Nc3cc4c(C(C)(C)N)cnc(OC5CN(C(=O)C6CC6)C5)c4cn3)nc2[C@H]1C [Compound 5] | 0.17 | 17.7 |
| CCC(=O)N1CC(Oc2ncc(C(C)(C)N)c3cc(Nc4ccc5c(n4)[C@@H](C)C(C)(C)OC5=O)ncc23)C1 [Compound 6] | 0.2 | 22.5 |
| CC(=O)N1C[C@@H](Oc2ncc(C(C)(C)N)c3cc(Nc4ccc5c(n4)[C@@H](C)C(C)(C)OC5=O)ncc23)[C@@H]1C [Compound 7] | 0.12 | 22.3 |
| C[C@@H]1c2nc(Nc3cc4c(C(C)(C)N)cnc(OC5CN(C(=O)C6CC6)C5)c4cn3)ccc2C(=O)OC1(C)C [Compound 8] | 0.16 | 32.7 |
| C[C@@H]1OC(=O)c2ccc(Nc3cc4c(C(C)(C)N)cnc(OC5CN(C(=O)[C@H]6C[C@H]6F)C5)c4cn3)nc2[C@H]1C [Compound 9] | 0.16 | 16.8 |
| C[C@@H]1OC(=O)c2ccc(Nc3cc4c(C(C)(C)N)cnc(OC5CN(C(=O)[C@@H]6C[C@@H]6F)C5)c4cn3)nc2[C@H]1C [Compound 10] | 0.13 | 8.1 |
| C[C@@H]1c2nc(Nc3cc4c(C(C)(C)N)cnc(OC5CN(C(=O)[C@@H]6C[C@@H]6F)C5)c4cn3)ccc2C(=O)OC1(C)C [Compound 12] | 0.16 | 10.5 |
| C[C@@H]1c2nc(Nc3cc4c(C(C)(C)N)cnc(OC5CN(C(=O)[C@H]6C[C@H]6F)C5)c4cn3)ccc2C(=O)OC1(C)C [Compound 13, (R)-2-((5-(2-aminopropan-2-yl)-8-((1-((1R,2R)-2-fluorocyclopropane-1-carbonyl)azetidin-3-yl)oxy)-2,7-naphthyridin-3-yl)amino)-7,7,8-trimethyl-7,8-dihydro-5H-pyrano[4,3-b]pyridin-5-one] | 0.17 | 23.2 |
| C[C@@H]1c2nc(Nc3cc4c(C(C)(C)N)cnc(O[C@@H]5CN(C(=O)[C@@H]6C[C@@H]6F)[C@H]5C)c4cn3)ccc2C(=O)OC1(C)C [Compound 14] | 0.19 | 15.3 |
| COC1CN(C(=O)[C@H]2C[C@@H](Oc3ncc(C(C)(C)N)c4cc(Nc5ccc6c(n5)[C@@H](C)C(C)(C)OC6=O)ncc34)C2)C1 [Compound 15, (R)-2-((5-(2-aminopropan-2-yl)-8-((cis)-3-(3-methoxyazetidine-1-carbonyl)cyclobutoxy)-2,7-naphthyridin-3-yl)amino)-7,7,8-trimethyl-7,8-dihydro-5H-pyrano[4,3-b]pyridin-5-one] | 0.13 | 42 |
| CC(=O)N1CC(Oc2ccc(C(C)(C)N)c3cc(Nc4ccc5c(n4)[C@@H](C)[C@H](C)OC5=O)ncc23)C1 [Compound 19] | 0.2 | 41.1 |
| CC(=O)N1CC(Oc2ccc(C(C)(C)N)c3cc(Nc4ccc5c(n4)[C@@H](C)C(C)(C)OC5=O)ncc23)C1 [Compound 21, (R)-2-((8-((1-Acetylazetidin-3-yl)oxy)-5-(2-aminopropan-2-yl)isoquinolin-3-yl)amino)-7,7,8-trimethyl-7,8-dihydro-5H-pyrano[4,3-b]pyridin-5-one] | 0.14 | 16.8 |
| CC(=O)N1CC(Nc2ncc(C(C)(C)N)c3cc(Nc4ccc5c(n4)[C@@H](C)C(C)(C)OC5=O)ncc23)C1 [Compound 22] | 0.54 | 479 |
| C[C@@H]1OC(=O)c2ccc(Nc3cc4c(C(C)(C)N)ccc(OC5CN(C(=O)C6CC6)C5)c4cn3)nc2[C@H]1C [Compound 29] | 0.12 | 11 |
| C[C@@H]1c2nc(Nc3cc4c(C(C)(C)N)cnc(OCCN5CCCC5=O)c4cn3)ccc2C(=O)OC1(C)C [Compound 31] | 0.21 | 42.8 |
| C[C@@H]1OC(=O)c2ccc(Nc3cc4c(C(C)(C)N)cnc(O[C@H]5C[C@@H](C(=O)N(C)C)C5)c4cn3)nc2[C@H]1C [Compound 33] | 0.15 | 9.2 |

| SMILES | IC50 [1] [nM] | EC50 [2] [nM] |
| --- | --- | --- |
| C[C@@H]1OC(=O)c2ccc(Nc3cc4c(C(C)(C)N)cnc(OC5CN(C(=O)N(C)C)C5)c4cn3)nc2[C@H]1C [Compound 34] | 0.19 | 43.3 |
| C[C@@H]1c2nc(Nc3cc4c(C(C)(C)N)cnc(OCCCC(=O)N(C)C)c4cn3)ccc2C(=O)OC1(C)C [Compound 39] | 0.14 | 14 |
| CC[C@@](C)(N)c1cnc(OC2CN(C(=O)C3CC3)C2)c2cnc(Nc3ccc4c(n3)[C@@H](C)[C@H](C)OC4=O)cc12 [Compound 49] | 0.24 | 25.7 |
| C[C@@H]1OC(=O)c2ccc(Nc3cc4c(C(C)(C)N)cnc(OC5CN(C(=O)C6COC6)C5)c4cn3)nc2[C@H]1C [Compound 54] | 0.21 | 29.3 |
| COC[C@@](C)(N)c1ccc(OC2CN(C(C)=O)C2)c2cnc(Nc3ccc4c(n3)[C@@H](C)C(C)(C)OC4=O)cc12 [Compound 56] | 0.17 | 23.8 |
| C[C@@H]1c2nc(Nc3cc4c(C(C)(C)N)cnc(OC5CN(C(=O)N(C)C)C5)c4cn3)ccc2C(=O)OC1(C)C [Compound 57] | 0.13 | 21.1 |
| COC[C@@](C)(N)c1cnc(OC2CN(C(C)=O)C2)c2cnc(Nc3ccc4c(n3)[C@@H](C)C(C)(C)OC4=O)cc12 [Compound 62] | 0.29 | 107 |
| CC(C)(N)c1cnc(OC2CN(C(=O)C3CC3)C2)c2cnc(Nc3ccc4c(n3)C3(CC3)C(C)(C)OC4=O)cc12 [Compound 63] | 0.19 | 23.2 |
| C[C@@H]1c2nc(Nc3cc4c(C(C)(C)N)cnc(O[C@@H]5CN(C(=O)C6CC6)[C@H]5C)c4cn3)ccc2C(=O)OC1(C)C [Compound 65] | 0.2 | 17.5 |
| CC[C@@](C)(N)c1cnc(OC2CN(C(=O)C3CC3)C2)c2cnc(Nc3ccc4c(n3)[C@@H](C)C(C)(C)OC4=O)cc12 [Compound 70] | 0.18 | 12.5 |
| C[C@@H]1c2nc(Nc3cc4c(C(C)(C)N)cnc(OC5CN(C(=O)N6CCC6)C5)c4cn3)ccc2C(=O)OC1(C)C [Compound 72] | 0.21 | 30.5 |
| C[C@@H]1OC(=O)c2ccc(Nc3cc4c(C(C)(C)N)cnc(OC5CN(C(=O)[C@@H]6CCCO6)C5)c4cn3)nc2[C@H]1C [Compound 76] | 0.17 | 47.3 |
| C[C@@H]1c2nc(Nc3cc4c(C(C)(C)N)cnc(OC5CN(C(=O)C6COC6)C5)c4cn3)ccc2C(=O)OC1(C)C [Compound 77] | 0.36 | 47.8 |
| COC[C@@](C)(N)c1cnc(OC2CN(C(=O)C3CC3)C2)c2cnc(Nc3ccc4c(n3)[C@@H](C)[C@H](C)OC4=O)cc12 [Compound 80] | 0.17 | 62.9 |
| C[C@@H]1OC(=O)c2ccc(Nc3cc4c(C(C)(C)N)cnc(OC5CN(C(=O)[C@@H]6C[C@@H]6F)[C@H]5C)c4cn3)nc2[C@H]1C (some centres unmarked) [Compound 85] | 0.1 | 17.8 |
| COC1CN(C(=O)[C@H]2C[C@@H](Oc3ncc(C(C)(C)N)c4cc(Nc5ccc6c(n5)[C@@H](C)[C@H](C)OC6=O)ncc34)C2)C1 [Compound 92] | 0.17 | 34 |
| C[C@@H]1c2nc(Nc3cc4c(C(C)(C)N)cnc(OC5CN(C(=O)N6CC(F)C6)C5)c4cn3)ccc2C(=O)OC1(C)C [Compound 95] | 0.22 | 19.8 |

— patent US20240199648A1, “MAP4K1 INHIBITORS” (Blueprint Medicines Corporation, priority 2021, published 2024)
